Measured values reported in patent EP1030842B1, “METALLOPROTEINASE INHIBITORS” (BRITISH BIOTECH PHARMACEUTICALS LIMITED, priority 1997, dated 1999).
Like-named read-outs stand apart in the source and are kept apart here.

Tests used:
72 kDa gelatinase = biological target: T1, 72 kDa gelatinase (Homo sapiens, UniProt P08253); assay: 72 kDa gelatinase inhibition (14C gelatin, based on Sellers et al); format: biochemical; conditions: 16 hours at 37°C
T1 construct: endogenous in cells; host or cells: RPMI-7951 cells
T1 sequence (P08253 110-660): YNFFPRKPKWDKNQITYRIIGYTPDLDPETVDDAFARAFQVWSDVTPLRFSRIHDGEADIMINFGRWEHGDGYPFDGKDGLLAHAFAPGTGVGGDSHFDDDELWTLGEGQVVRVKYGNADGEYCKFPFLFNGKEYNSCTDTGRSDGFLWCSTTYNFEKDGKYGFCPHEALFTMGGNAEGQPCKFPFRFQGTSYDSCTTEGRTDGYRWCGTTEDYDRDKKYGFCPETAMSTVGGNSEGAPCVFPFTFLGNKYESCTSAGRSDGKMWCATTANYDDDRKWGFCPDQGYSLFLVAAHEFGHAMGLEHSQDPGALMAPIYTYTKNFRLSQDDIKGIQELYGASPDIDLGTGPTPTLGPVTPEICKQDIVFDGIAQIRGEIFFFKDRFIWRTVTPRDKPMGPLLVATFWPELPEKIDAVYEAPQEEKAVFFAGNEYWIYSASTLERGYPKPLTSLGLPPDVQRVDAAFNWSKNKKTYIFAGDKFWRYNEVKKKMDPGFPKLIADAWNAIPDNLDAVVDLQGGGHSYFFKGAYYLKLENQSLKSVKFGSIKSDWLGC
Experimental: 72 kDa gelatinase, derived from RPMI-7951 cells was purified by gelatin-agarose chromatography. The enzyme was activated by incubation with aminophenyl mercuric acetate and approximately 0.05 units was incubated with 50µg [^14C]-radiolabelled gelatin in an appropriate buffer for 16 hours at 37'C. At the end of the incubation 50µg bovine serum albumin, together with trichloroacetic acid (final concentration 16%) were added to stop the reaction and to precipitate any undegraded substrate. The reaction tubes were placed on ice for 15 minutes before centrifugation at 10,000g for 15 minutes to sediment the precipitated substrate. A 200µl aliquot of the reaction supernatant was removed and the radioactivity determined by liquid scintillation counting. The effect of the inhibitors was determined by reference to a dose response curve. The IC50 (the concentration of inhibitor required to cause a 50% decrease in enzyme activity) was obtained by fitting a curve to the data and computing the concentration of inhibitor required to achieve 50% inhibition of the enzyme. For each IC50 determination, the effect on gelatinase activity of at least 8 concentrations of the inhibitor were examined. The inhibitors were dissolved and diluted in DMSO.

[1] = Blood concentration over time after gavage, by collagenase inhibitory activity of blood extracts; format: in vivo; conditions: male rats
Experimental: The concentration over time of compound of the invention in the blood of laboratory animals following administration of the test compounds was measured. The compound was administered by gavage to 6 male rats (300g) per treatment group. Blood samples were removed by tail venepuncture at 0.5, 1.0, 2.0, 6.0 and 24 hours post administration. 0.4 ml of blood was placed into 4.5ml tubes containing 0.1ml acid citrate dextrose (ACD) as anti-coagulant. For extraction, 3ml methanol was added and the precipitated blood pelletted by centrifugation (30 min at 3000 rpm). A 2ml aliquot of supernatant was removed and concentrated by lyophilisation. The extract was redissolved in 200µl DMSO and a 10µl aliquot assayed for collagenase inhibitory activity. The inhibitory activity in the extracts was determined using the collagenase assay described in Biological Example A above, and the concentration of inhibitor (that is drug plus any active metabolites) obtained by comparison with standard curves. Results are expressed as peak concentration in ng/ml, as area under the curve (AUC) in ng/ml x hours, over 0.5-24 hours, and as AUC in number of IC50's x hours.

[2] = Inhibitory activity in blood after oral administration to marmosets; format: in vivo
[3] = Inhibitory activity in blood after oral administration to healthy human volunteers; format: in vivo
B16 mouse melanoma cells = assay: B16 mouse melanoma model; format: in vivo, C57/BL6J mice
Excerpt: In this model C57/BL6J mice are inoculated subcutaneously with 10^5 B16 mouse melanoma cells. The tumours are allowed to grow over 18 days and the tumour weight calculated by calliper measurements and the following formula: weight (mg)- length (mm) x width (mm) ö 4. A group of mice (n=19) received the compound, administered via a mini-osmotic pump implanted subcutaneously on the opposite flank to the B16 tumour. The pump was implanted the day before tumour inoculation and the compound was delivered at a dose of 360 µg/day. A control group (n=17) received the appropriate volume of vehicle from identical implanted pumps.

MDA-435 cells = conditions: study ended day 32
Experimental: In this model, animals were inoculated with MDA-435 cells (10^6 cells/mouse), the tumours allowed to grow for four days and then the animals were randomised by tumour weight into three treatment groups (n=15 per group). Mini-pumps were surgically implanted on day 5 containing either vehicle or test compound at 15 mg/ml or 60 mg/ml (delivering 180 or 720 µg/mouse/day respectively). The pumps were replaced on day 19 and the study ended on day 32.

[4] = Propensity to induce observable signs of tendinitis in rats (observation based score); format: in vivo, Male Lewis rats; conditions: 5µl/hr; for signs of tendinitis: observed daily for 16 days, mean scores >2 significant
Experimental: The compound of the invention was tested for its propensity to induce observable signs of tendinitis in rats. The tendinitic effect in rats of the compound of the invention ("Compound A") was compared with that of a close structural isomer, namely N^1-[2,2-dimethyl-1S-(pyridin-3-ylcarbamoyl)-propyl]-N^4-hydroxy-2R-isobutyl-3S-hydroxy-succinamide ("Compound B").
Male Lewis rats were used. In each study up to 30 rats were weighed and randomised on bodyweight for group allocation, n=6/group. In each study, a corresponding vehicle group was run to compare with each treatment group.
Compound A was formulated as its mesylate salt, whilst Compound B was formulated as the free base. For Compound A @ 15mg/ml the vehicle was 50% DMSO, 37% 0.1M methane sulphonic acid, 13% sterile water; and @ 30mg/ml the vehicle was 50% DMSO, 37% 0.2M methane sulphonic acid, 13% sterile water. For Compound B @ 15mg/ml the vehicle was 50% DMSO/water.
Alzet (trade mark) osmotic minipumps (2ML2, 14 day, 5µl/hr from Alza Corp., Palo Alto CA 94303), were weighed empty and full to be sure of correct fill volume. Prior to implantation, filled pumps were placed in an incubator at 37°C. All rats were anaesthetized with halothane. Once anaesthetised, the scruff was shaved and disinfected. A longitudinal skin incision, approx 2 cm long, was made on the prepared site and a subcutaneous pocket was made under the skin using a pair of haemostatic forceps. Minipumps were inserted with the exit of the pump facing away from the wound. The incision wound was closed with sutures, and the area around the wound was re-disinfected. Immediately post-operatively, all the rats received analgesic, (Temgesic -trade mark - Reckitt and Colman) 0.1mg/kg s.c. in the flank. On recovery from anaesthesia, the animals were returned to cages containing dry bedding to ensure the wound remained dust free prior to healing. On the day followng surgery, all rats were placed back on standard bedding and housed in groups of 3 to enable more accurate observation of signs of tendinitis.
Following the implantation of mini-pumps, rats were weighed and monitored for the possible onset of tendinitis. Onset and severity of tendinitis was measured by an observation based scoring system (see below). The rats were observed daily for 16 days. Mean scores >2 were considered significant.

[5] = Rat experimental autoimmune neuritis (EAN) model of GBS; format: in vivo
Experimental: The effect of the compound of the invention was tested in an animal model of GBS Experimental autoimmune neuritis (EAN) is a T cell mediated, autoimmune disorder of the peripheral nervous system. […] EAN can be induced when animals are injected with myelin from peripheral nerves, or with protein components of the myelin such as Protein 0, in adjuvant. EAN lesions occur in the spinal roots and peripheral nerves and are characterised by perivascular mononuclear cell infiltration, demyelination of axons and nerve conduction deficit.
The compound of the invention was tested in a rat EAN model where disease symptoms were induced by injection of peripheral nerve myelin in adjuvant. […]

[6] = Delayed type hypersensitivity (DTH) model of MS; format: in vivo, Male Lewis rats; conditions: 30mg/kg orally twice daily, mean ± standard error of the mean
[7] = Blood concentration in minipump-dosed rats of the tendinitis study (fluorometric assay); format: in vivo; conditions: rats of the tendinitis tests; blood samples days 3, 10 and 16 or 17 post implantation
Experimental: Blood samples were obtained on days 3 and 10 post minipump implantation from rats lightly anaesthetised with halothane via the tail vein. Blood samples (0.5ml) were placed into tubes containing 3.0ml methanol to extract free and bound compound. Blood concentration of Compound A or Compound B was determined by a fluorometric assay using the coumarin peptide substrate Mca-Pro-Leu-Gly-Leu-Dpa-Ala-Arg-NH2 (Mca = (7-methoxycoumarin-4-yl)acetyl, Dpa = N-3-(2,4-dinitrophenyl)-L-2,3-diaminopropyl) (see Knight et. al., FEBS Lett. 1992, 296, 263-266). On either day 16 or 17 post implantation, studies were ended, rats were terminally anaesthetised with halothane and blood samples (0.5ml) were taken by cardiac puncture and the blood concentration of Compound A or Compound B determined.

interstitial collagenase = interstitial collagenase (Homo sapiens, UniProt P03956); assay: biochemical
Experimental: The potency of the compound of the invention as inhibitors of interstitial collagenase was determined by the procedure of Cawston and Barrett, (Anal. Biochem., 99, 340-345, 1979), whereby a 1mM solution of the compound being tested, or a dilution thereof, was incubated at 37° for 16 hours with collagen and collagenase (buffered with 25mM Hepes, pH 7.5 containing 5mM CaCl2, 0.05% Brij 35 and 0.02% NaN3). The collagen was acetylated ^14C collagen prepared by the method of Cawston and Murphy, (Methods in Enzymology, 80, 711, 1981), hereby incorporated by reference. The samples were centrifuged to sediment undigested collagen, and an aliquot of the radioactive supernatant removed for assay on a scintillation counter as a measure of hydrolysis.

stromelysin-1 = stromelysin-1 (Homo sapiens, UniProt P08254); assay: biochemical
Experimental: The potency of the compound of the invention as inhibitors of stromelysin-1 was determined by the procedure of Cawston et al, (Biochem. J., 195, 159-165, 1981), whereby a 1mM solution of the compound being tested, or a dilution thereof, was incubated at 37° for 16 hours with stromelysin and ^14C acetylate casein (buffered with 25mM Hepes, pH 7.5 containing 5mM CaCl2, 0.05% Brij 35 and 0.02% NaN3). The casein was acetylated ^14C casein prepared by the method of Cawston et al (ibid).

[8] = 15mg/ml in osmotic minipump, Compound A as mesylate salt, Compound B as free base

Sequence of stromelysin-1 (P08254 100-477, species assumed): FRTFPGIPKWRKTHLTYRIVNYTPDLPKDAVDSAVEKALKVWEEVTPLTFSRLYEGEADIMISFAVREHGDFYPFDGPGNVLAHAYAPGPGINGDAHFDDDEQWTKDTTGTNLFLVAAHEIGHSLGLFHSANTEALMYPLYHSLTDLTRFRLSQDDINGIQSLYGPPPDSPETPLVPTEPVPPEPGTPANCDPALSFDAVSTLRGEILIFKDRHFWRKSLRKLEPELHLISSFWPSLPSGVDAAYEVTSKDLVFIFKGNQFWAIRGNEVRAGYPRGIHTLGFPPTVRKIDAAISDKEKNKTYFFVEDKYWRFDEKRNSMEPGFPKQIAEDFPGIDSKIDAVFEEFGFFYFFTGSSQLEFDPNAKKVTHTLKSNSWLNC
Sequence of interstitial collagenase (P03956 100-469, species assumed): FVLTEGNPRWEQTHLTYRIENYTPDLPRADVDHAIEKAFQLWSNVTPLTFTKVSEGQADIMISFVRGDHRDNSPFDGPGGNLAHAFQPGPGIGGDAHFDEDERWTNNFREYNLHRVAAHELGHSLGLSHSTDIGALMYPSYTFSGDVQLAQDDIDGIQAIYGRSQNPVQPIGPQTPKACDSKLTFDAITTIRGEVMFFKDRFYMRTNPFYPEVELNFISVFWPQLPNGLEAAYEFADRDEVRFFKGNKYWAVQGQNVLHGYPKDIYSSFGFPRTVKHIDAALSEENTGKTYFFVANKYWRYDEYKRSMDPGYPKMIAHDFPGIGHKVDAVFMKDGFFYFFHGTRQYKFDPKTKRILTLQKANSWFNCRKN

Structure (SMILES): CO[C@H](C(=O)NO)[C@@H](CC(C)C)C(=O)N[C@H](C(=O)Nc1ccccn1)C(C)(C)C [compound of the invention, N^1-[2,2-Dimethyl-1S-(pyridin-2-ylcarbamoyl)-propyl]-N^4-hydroxy-2R-isobutyl-3S-methoxy-succinamide]
- IC50 (72 kDa gelatinase): 70 nM
- AUC (0.5 - 24h) ([1]; AUC in number of IC50's x hours): 674 n IC50's x h
- AUC (0.5 - 24h) ([1]; drug plus any active metabolites in blood): 2966 ng/ml x h
- inhibitory activity in the blood [2]: significant levels of inhibitory activity have been detected
- inhibitory activity in the blood [3]: significant levels of inhibitory activity have been detected
- weight of the compound-treated tumours (B16 mouse melanoma cells; day 18, 360 µg/day via subcutaneous mini-osmotic pump, control 1145 ± 97 mg): 774 ± 50 mg
- reduction of tumour weight (B16 mouse melanoma cells; day 18, 360 µg/day, versus vehicle control, p<0.005): 32%
- plasma level (B16 mouse melanoma cells; end of the study, 360 µg/day via mini-osmotic pump): 26.8 ± 3.2 ng/mL
- inhibition of tumour growth (MDA-435 cells; 180 µg/mouse/day (15 mg/ml mini-pump)): 19%
- inhibition of tumour growth (MDA-435 cells; 720 µg/mouse per day (60 mg/ml mini-pump), p<0.005): 33%
- signs of tendinitis [4, 8]: no significant signs of tendinitis
- signs of tendinitis ([4]; 30mg/ml in osmotic minipump, mesylate salt): no significant signs of tendinitis
- clinical symptoms ([5]; given therapeutically day 8-15, 15 or 30 mg/ml at 10 µl/hour, 14 and 28 mg/kg/day): reduces clinical symptoms in a dose dependent manner
- development of clinical symptoms ([5]; treatment day 1-15, minipumps 15 or 30 mg/ml at 5 µl/hour, 7 and 14 mg/kg/day): significantly reduces the development of clinical symptoms in a dose-dependent manner
- Blood brain barrier leakage ([6]; day 5 to day 15 after second BCG injection, p<0.05 vs vehicle): 2.042±0.487 mm^2
- T cell infiltration ([6]; OX-22 positive cells, p<0.0001 vs vehicle): 341.2±21.9 cells/mm^2
- Demyelination ([6]; not statistically significant): 0.758±0.227 mm^2
- MHC class II expression ([6]; not statistically significant): 1.318±0.300 mm^2
- plasma exposure from the minipumps [7]: receiving plasma exposure
- IC50 (interstitial collagenase): 10 nM
- IC50 (stromelysin-1): 30 nM

Structure (SMILES): CC(C)C[C@@H](C(=O)N[C@H](C(=O)Nc1cccnc1)C(C)(C)C)[C@H](O)C(=O)NO [Compound B, N^1-[2,2-dimethyl-1S-(pyridin-3-ylcarbamoyl)-propyl]-N^4-hydroxy-2R-isobutyl-3S-hydroxy-succinamide]
- signs of tendinitis [4, 8]: significant signs from day 8 onwards
- mean scores (tendinitis) ([4]; day 8, 15mg/ml in osmotic minipump): > 2
- mean scores (tendinitis) ([4]; days 15 and 16, 15mg/ml in osmotic minipump): about 6
- plasma exposure from the minipumps [7]: receiving plasma exposure
